Measurements as given in PMC6180429 (Organic & Biomolecular Chemistry, 2018).

Legend:
[1] = biological target: T1, PPARγ (peroxisome proliferator-activated receptor γ) (Homo sapiens, UniProt P37231); assay: Gal4-PPARγ-LBD one-hybrid luciferase reporter assay in HEK293 cells (partial agonist); type: cell-based
T1 construct: gene PPARG
T1 sequence (P37231 232-505 limits assumed): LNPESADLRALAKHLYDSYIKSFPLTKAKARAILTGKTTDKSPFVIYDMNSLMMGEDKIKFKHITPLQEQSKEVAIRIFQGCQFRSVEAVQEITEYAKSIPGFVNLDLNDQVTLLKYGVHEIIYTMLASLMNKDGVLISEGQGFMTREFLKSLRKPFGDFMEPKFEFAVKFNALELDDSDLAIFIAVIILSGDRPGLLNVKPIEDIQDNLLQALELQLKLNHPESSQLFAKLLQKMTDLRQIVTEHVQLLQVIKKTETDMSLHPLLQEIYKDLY

[2] = biological target: T1, PPARγ (peroxisome proliferator-activated receptor γ); assay: Gal4-PPARγ reporter assay in HEK293 cells, antagonism of […] pioglitazone; type: cell-based

Row | EC50 [1] [nM] | Compound | Gal4-PPARγ reporter assay in HEK293 cells, antagonism of 10 μM pioglitazone [2]
1 | 1070 | C=CCc1ccc(O)c(-c2cc(CC=C)c(CCC/C=C\Cc3ccc(O)cc3)cc2O)c1 [III, Sesqui magnolol A] | 
2 | 770 | C=CCc1ccc(O)c(-c2cc(C/C=C\CCCc3cc(O)ccc3CC=C)ccc2O)c1 [IV, Sesqui magnolol B] | 
3 |  | C=CCc1ccc(O)cc1CCC/C=C\Cc1ccc(O)cc1 [V, Truncated magnolol dimer] | V showed a dose-dependent inhibition of the pioglitazone induced PPARγ-Gal4 activation.
